Laboratory results: PMC5775428, “Towards an experimental classification system for membrane active peptides” (Scientific Reports, 2018)
Read-outs that look alike come from different tables or passages of the source.

Tests used:
[1] = tested on: Bacillus cereus
Description: (§1) Antimicrobial activity was tested against three categories of human and plant pathogenic microorganisms: Gram-positive (Bacillus subtilis, Bacillus cereus, Staphylococcus aureus), Gram-negative (Escherichia coli, Pseudomonas aeruginosa, Erwinia carotovora, Pseudomonas syringae pv. tabaci, Xanthomonas campestris pv. citri) and yeasts (Candida albicans, Cryptococcus neoformans), as previously reported. […] The full list of peptide MICs was published in an accompanying paper, and is available in the current publication as supplementary dataset (Supplementary dataset 01).
(§2) The determination of the minimum inhibitory concentration (MIC) of peptides was performed as described in “Encrypted Antimicrobial Peptides from Plant Proteins”[7]. Briefly, MICs were determined following protocols M7-A10 and M27-A3 from Clinical & Laboratory Standards Institute (CLSI) for bacteria and yeasts, respectively. Different concentrations of IAPs (0.5 to 256 μM) were tested against several microorganisms in a final volume of 100 µL. Three biological repetitions, with 2 technical replicates each, were performed for each test, on polystyrene flat-bottom 96 wells microplates. The minimum inhibitory concentration (MIC) was defined as the concentration at which no cells were detected when visualized by optical microscopy. Please refer to the literature[7] for further details of the microbiological assays.

[2] = tested on: Bacillus subtilis; conditions: Bacillus subtilis; for Minimum inhibitory concentration, Average: average of triplicates
Description: as §1, §2

[3] = tested on: Candida albicans; conditions: Candida albicans; for Minimum inhibitory concentration, Average: average of triplicates
Description: as §1, §2

[4] = tested on: Cryptococcus neoformans; conditions: Cryptococcus neoformans; for Minimum inhibitory concentration, Average: average of triplicates
Description: as §1, §2

[5] = tested on: Erwinia carotovora; conditions: Erwinia carotovora; for Minimum inhibitory concentration, Average: average of triplicates
Description: as §1, §2

[6] = tested on: Escherichia coli; conditions: Escherichia coli; for Minimum inhibitory concentration, Average: average of triplicates
Description: as §1, §2

[7] = tested on: Pseudomonas aeruginosa
Description: as §1, §2

[8] = tested on: Pseudomonas syringae pv. tabaci; conditions: Pseudomonas syringae pv. tabaci; for Minimum inhibitory concentration, Average: average of triplicates
Description: as §1, §2

[9] = tested on: Staphylococcus aureus; conditions: Staphylococcus aureus; for Minimum inhibitory concentration, Average: average of triplicates
Description: as §1, §2

[10] = tested on: Xanthomonas campestris; conditions: for Minimum inhibitory concentration, Average: average of triplicates
Description: as §1, §2

[11] = CLSI M27-A3, 0.5 to 256 μM tested, triplicate 1, also published in ref 7
[12] = Pseudomonas aeruginosa, CLSI M7-A10, triplicate 1
[13] = Pseudomonas aeruginosa, average of triplicates
[14] = Pseudomonas aeruginosa, triplicate 2
[15] = Pseudomonas aeruginosa, triplicate 3

Sequence	Minimum inhibitory concentration ([2]; CLSI M7-A10, triplicate 1) [µM]	Minimum inhibitory concentration, Average [2] [µM]	Minimum inhibitory concentration ([2]; triplicate 2) [µM]	Minimum inhibitory concentration ([2]; triplicate 3) [µM]	Minimum inhibitory concentration [3, 11] [µM]	Minimum inhibitory concentration, Average [3] [µM]	Minimum inhibitory concentration ([3]; triplicate 2) [µM]	Minimum inhibitory concentration ([3]; triplicate 3) [µM]	Minimum inhibitory concentration ([6]; CLSI M7-A10, triplicate 1) [µM]	Minimum inhibitory concentration, Average [6] [µM]	Minimum inhibitory concentration ([6]; triplicate 2) [µM]	Minimum inhibitory concentration ([6]; triplicate 3) [µM]	Minimum inhibitory concentration ([9]; CLSI M7-A10, triplicate 1) [µM]	Minimum inhibitory concentration, Average [9] [µM]	Minimum inhibitory concentration ([9]; triplicate 2) [µM]	Minimum inhibitory concentration ([9]; triplicate 3) [µM]	Minimum inhibitory concentration [7, 12] [µM]	Minimum inhibitory concentration, Average [7, 13] [µM]	Minimum inhibitory concentration [7, 14] [µM]	Minimum inhibitory concentration [7, 15] [µM]	further results
FFYNVIKIYGNMAGRISK [Cs03]	64	64.0	64	64	128	128.0	128	128	128	128.0	128	128	128	128.0	128	128					Minimum inhibitory concentration [1]: 512 µM; Minimum inhibitory concentration, Average [1]: 512.0 µM; Minimum inhibitory concentration ([4]; CLSI M27-A3, triplicate 1): 32 µM; Minimum inhibitory concentration, Average [4]: 32.0 µM; Minimum inhibitory concentration ([4]; triplicate 2): 32 µM; Minimum inhibitory concentration ([4]; triplicate 3): 32 µM; Minimum inhibitory concentration ([5]; CLSI M7-A10, triplicate 1): 16 µM; Minimum inhibitory concentration, Average [5]: 16.0 µM; Minimum inhibitory concentration ([5]; triplicate 2): 16 µM; Minimum inhibitory concentration ([5]; triplicate 3): 16 µM; Minimum inhibitory concentration [7]: 512 µM; Minimum inhibitory concentration, Average [7]: 512.0 µM; Minimum inhibitory concentration ([8]; CLSI M7-A10, triplicate 1): 128 µM; Minimum inhibitory concentration, Average [8]: 128.0 µM; Minimum inhibitory concentration ([8]; triplicate 2): 128 µM; Minimum inhibitory concentration ([8]; triplicate 3): 128 µM; Minimum inhibitory concentration ([10]; CLSI M7-A10, triplicate 1): 512 µM; Minimum inhibitory concentration, Average [10]: 512.0 µM; Minimum inhibitory concentration ([10]; triplicate 2): 512 µM; Minimum inhibitory concentration ([10]; triplicate 3): 512 µM
GKILKYLLYLLRKYANLIIR [Tc02]	4	4.0	4	4	1	1.0	1	1	8	10.7	8	16	8	8.0	8	8	16	16.0	16	16	Minimum inhibitory concentration ([1]; Bacillus cereus, CLSI M7-A10, triplicate 1): 16 µM; Minimum inhibitory concentration, Average ([1]; Bacillus cereus, average of triplicates): 13.3 µM; Minimum inhibitory concentration ([1]; Bacillus cereus, triplicate 2): 16 µM; Minimum inhibitory concentration ([1]; Bacillus cereus, triplicate 3): 8 µM; Minimum inhibitory concentration ([4]; CLSI M27-A3, triplicate 1): 1 µM; Minimum inhibitory concentration, Average [4]: 1.0 µM; Minimum inhibitory concentration ([4]; triplicate 2): 1 µM; Minimum inhibitory concentration ([4]; triplicate 3): 1 µM; Minimum inhibitory concentration ([5]; CLSI M7-A10, triplicate 1): 16 µM; Minimum inhibitory concentration, Average [5]: 16.0 µM; Minimum inhibitory concentration ([5]; triplicate 2): 16 µM; Minimum inhibitory concentration ([5]; triplicate 3): 16 µM; Minimum inhibitory concentration ([8]; CLSI M7-A10, triplicate 1): 4 µM; Minimum inhibitory concentration, Average [8]: 4.0 µM; Minimum inhibitory concentration ([8]; triplicate 2): 4 µM; Minimum inhibitory concentration ([8]; triplicate 3): 4 µM; Minimum inhibitory concentration ([10]; CLSI M7-A10, triplicate 1): 16 µM; Minimum inhibitory concentration, Average [10]: 16.0 µM; Minimum inhibitory concentration ([10]; triplicate 2): 16 µM; Minimum inhibitory concentration ([10]; triplicate 3): 16 µM
GLKDMIKNLAKEAAVKLAGAVINKFSPQPQ [Nat-1, Nattererin-1, reference compound]					16	16.0	16	16	8	8.0	8	8	16	26.7	32	32	32	32.0	32	32	
GIGKFLHSAKKFGKAFVGEIMNS [Mag-2a, Magainin-2a, reference compound]					64	64.0	64	64	8	8.0	8	8	512	512.0	512	512	512	512.0	512	512	
GIGDILKNLAKAAGKAALHAVGESL [HSP-4, Hylaseptin-4, reference compound]					8	8.0	8	8	8	8.0	8	8	8	8.0	8	8	16	16.0	16	16	
FLSLIPHAINAVSTLVHHF [PS-2, reference compound]					32	32.0	32	32	8	8.0	8	8	8	8.0	8	8	512	512.0	512	512	
